Reference: patent US6475801B1, “Anticoagulant and hemanalysis method” (Sysmex Corporation, priority 1998, dated 2002)

Tests used:
[1] = test system: platelets; experiment: Examination on EDTA-dependant pseudothrombocytopenia (platelet counting); type: cell-based, human; settings: FIG. 1
Method: Blood samples to which CTAD of the present invention or EDTA-2K was added were subjected to the platelet counting in order to compare them with regard to the EDTA-dependant Pseudothrombocytopenia.

[2] = test system: platelets; experiment: Examination on cold agglutination (platelet counting after cold storage); type: cell-based, human
Method: Blood samples to which CTAD of the present invention or EDTA-2K was added were subjected to the platelet counting in order to compare them with regard to cold agglutination (the pseudothrombocytopenia in cold storage). […]

[3] = test system: platelets; experiment: Change with time in the mean platelet volume (MPV); type: cell-based, human; settings: FIG. 2
Method: Blood samples to which CTAD of the present invention or EDTA-2K was added were compared with regard to change with time in the size of platelets.

[4] = test system: blood coagulation; experiment: Blood coagulation tests (CA-1000), Example 1 A; set-up: species or system human; settings: mean of four normal samples
Description: Blood was collected into test tubes containing the anticoagulant (CTAD) prepared as above and subjected to blood cell count tests (leukocyte count (WBC), ratios of leukocytic components (neutrophil ratio (NEUT%), lymphocyte ratio (LYMPH%), monocyte ratio (MONO%), eosinophil ratio (EOSI%) and basophil ratio (BASO%)), erythrocyte count (RBC), hemoglobin concentration (Hgb), hematocrit (Hct), MCV, MCH, MCHC and platelet count (PLT))(used counter: SE-9000™ produced by Sysmex Corporation, Japan) and coagulation tests (prothrombin time (PT), activated partial thromboplastin time (APTT), fibrinogen determination (Fbg))(used tester:CA-1000 produced by Sysmex Corporation, Japan).
EDTA-2K (Venoject II™ or 5 ml produced by Terumo), 5 mg, was used as a control for the blood cell count tests and a 3.8% solution of sodium citrate (3.8% solution of sodium citrate for 5 ml produced by Terumo, Japan), 0.5 ml, was used as a control for the blood coagulation tests, respectively, in place of the above anticoagulant.
The tests were conducted with four normal samples, and mean values are calculated.

Row | SMILES | change with time in the number of platelets [1] | decrease of platelets in cold storage ([2]; 4° C., eight hours after collected) | PLT (platelet count) ([2]; 37° C. (control)) | PLT (platelet count) ([2]; preserved at 4° C., examined eight hours after collected) | change with time in the size of platelets (mean platelet volume) [3] | APTT (activated partial thromboplastin time) [4] | Fbg (fibrinogen determination) [4] | PT (prothrombin time) [4]
1 | O=C([O-])CN(CCN(CC(=O)O)CC(=O)O)CC(=O)[O-].[K+].[K+] [EDTA-2K] | decreased with time | Platelets decreased | 17.6 ×10^4 | 9.0 ×10^4 | grew in size with time |  |  | 
2 | O=C([O-])CC(O)(CC(=O)[O-])C(=O)[O-].[Na+].[Na+].[Na+] [sodium citrate] |  |  |  |  |  | 28.6 s | 9.8 s | 9.5 s
